Entries after “also recorded” stand apart in the source; their conditions may differ.
Tests used:
[1] = tested on: MCF7 cells; experiment: Migration assay (serum induced wound healing); type: cell-based; conditions: 10 µM, 15 h, in presence of serum, vs vehicle (DMSO)
Protocol: Michigan Cancer Foundation 7 (MCF7) cells were cultured in DMEM with 10% FBS + 1% penicillin/streptomycin and cultures were maintained by splitting them for every 2–3 days using trypsin–EDTA 0.25%.
Cell migration assays were performed using the Culture-Insert 2 well in µ-Dish (ibidi GmbH, Martinsried, Germany).
Briefly, 25,000 MCF7 cells were plated in each well and cultured for 24 h. The day after, the culture insert was removed and the cells were washed with PBS before treating them with respective DGKα inhibitors (10 µM) or DMSO for 15 h in complete medium (DMEM 10% FBS + 1% penicillin/streptomycin), while medium without FBS was used as a negative control for migration.
Phase-contrast pictures were taken immediately after treatment (0 h) and after 15 h under 5× magnification.
Finally, wound areas were determined using ImageJ software (NIH, , Bethesda, MD). Wound reduction was calculated by using the following formula: (wound area at 15 h/wound at 0 h)×100, the values obtained were expressed as the percentage of wound area compared to the initial area.
To evaluate if our newly synthetised DGKα inhibitors were effective in impairing cancer cell migration, we measured serum induced wound healing in MCF7 breast cancer cells in presence of 10 µM inhibitor. […]
Figure 10. […] Results are expressed as the percentage of wound area compared to the initial area. […]

[2] = tested on: serotonin receptors; parameters: method as in PMID 30611057; conditions: cited from earlier work
[3] = target: T1, DGKθ (Homo sapiens, UniProt P52824); experiment: Isoform specificity, DGKθ homogenates of transfected 293T cells; type: biochemical; conditions: 100 µM; 293T homogenates
T1 construct: expressed in transfected cells; host or cells: 293T cells, transient transfection (Lipofectamine 3000), crude homogenate
T1 sequence (P52824 1-942): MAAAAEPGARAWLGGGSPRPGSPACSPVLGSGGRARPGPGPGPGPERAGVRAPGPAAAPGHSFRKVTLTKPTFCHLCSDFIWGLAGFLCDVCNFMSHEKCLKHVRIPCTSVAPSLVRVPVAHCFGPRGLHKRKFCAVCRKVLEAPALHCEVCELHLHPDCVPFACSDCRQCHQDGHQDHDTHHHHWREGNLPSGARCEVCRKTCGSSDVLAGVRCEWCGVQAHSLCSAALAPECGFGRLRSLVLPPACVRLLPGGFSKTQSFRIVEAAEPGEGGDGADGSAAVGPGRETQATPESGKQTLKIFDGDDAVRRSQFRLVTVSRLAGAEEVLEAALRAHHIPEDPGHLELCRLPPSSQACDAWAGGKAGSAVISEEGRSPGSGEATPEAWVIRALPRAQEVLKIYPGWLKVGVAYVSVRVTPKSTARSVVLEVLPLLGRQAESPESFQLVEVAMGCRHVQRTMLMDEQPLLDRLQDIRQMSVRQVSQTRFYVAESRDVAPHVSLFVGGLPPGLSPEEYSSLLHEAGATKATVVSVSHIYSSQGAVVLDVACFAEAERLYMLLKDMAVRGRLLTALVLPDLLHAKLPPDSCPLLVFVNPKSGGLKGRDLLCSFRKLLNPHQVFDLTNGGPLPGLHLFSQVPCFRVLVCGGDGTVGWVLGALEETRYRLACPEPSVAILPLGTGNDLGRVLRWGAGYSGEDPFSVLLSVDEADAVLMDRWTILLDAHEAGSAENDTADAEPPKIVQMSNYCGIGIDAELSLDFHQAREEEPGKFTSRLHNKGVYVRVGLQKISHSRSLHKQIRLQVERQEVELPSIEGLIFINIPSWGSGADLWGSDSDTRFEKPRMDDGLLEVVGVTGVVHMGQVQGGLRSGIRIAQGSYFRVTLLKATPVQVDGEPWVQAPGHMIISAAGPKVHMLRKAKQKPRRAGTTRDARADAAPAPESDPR
Protocol: 293T cells were transiently transfected with indicated DGK isoform plasmid DNA using Lipofectamine 3000, Invitrogen (Carlsbad, CA). Forty eight hours after transfection, cells were harvested and homogenised with a 29 G-needle using 500 µL of homogenate buffer for each dish and immediately stored in aliquots at –80 °C. Cells transfected with empty vector were used as controls, overexpressed DGK has an activity >50 folds the endogenous.
Essentionally, the same procedure was followed as reported previously in Velnati et al.[9] In brief, DGK activity was assayed by measuring initial velocities (5 min at 27 °C) in presence of saturating substrate concentrations. Reaction conditions: 0.9 µg/µL 1,2-dioleoyl-sn-glycerol, 5 mM ATP, 0.01 µCi/µL [γ^32P]-ATP, 1 mM sodium orthovanadate, 10 mM MgCl2, 1.2 mM EGTA in 7.5 mM Hepes pH 8[12]. Reaction mixture is assembled mixing enzyme (24.5 µL of homogenate), 100× inhibitor or DMSO (0.5 µL), 5× ATP solution (10 µL of 25 mM ATP, 0.05 µCi/µL [γ^32P]-ATP (Perkin-Elmer, Milan, Italy), 5 mM sodium orthovanadate, 50 mM MgCl2), and 3.3× DAG solution (15 µL of 3 µg/µL 1,2-dioleoyl-sn-glycerol resuspended by sonication in 4 mM EGTA in 25 mM Hepes pH 8). […] TLC was run 10 cm and dried before radioactive signals were detected by GS-250 molecular imager and was quantified by quantity one (Bio-Rad, Hercules, CA) software assuring the absence of saturated spots. […]

Row | Structure (SMILES) | cell migration (wound closure) [1] | anti-serotoninergic activity [2] | effect on DGKθ activity [3]
1 | Cc1ccc2c(C(=O)CN3CCN(C(=O)c4ccc(Cl)cc4)CC3)c(C)[nH]c2c1 [Compound 11, 2-(4-(4-Chlorobenzoyl)piperazin-1-yl)-1-(2,6-dimethyl-1H-indol-3-yl)ethan-1-one] | reduce the migration | – | –
2 | Cc1ccc2c(C(=O)CN3CCN(C(=O)c4ccco4)CC3)c(C)[nH]c2c1 [Amb639752] | – | no effects on serotonin activity; also recorded: devoid of anti-serotoninergic activity | do not have significant effects
3 | Cc1ccc(C(=O)N2CCN(CC(=O)c3c(C)[nH]c4cc(C)ccc34)CC2)cc1 [Compound 20, 1-(2,6-Dimethyl-1H-indol-3-yl)-2-(4-(4-methylbenzoyl)piperazin-1-yl)ethan-1-one] | reduce the migration | – | activator

Source: PMC6844378, “Structure activity relationship studies on Amb639752: toward the identification of a common pharmacophoric structure for DGKα inhibitors” (Journal of Enzyme Inhibition and Medicinal Chemistry, 2019)
